Like-named read-outs stand apart in the source and are kept apart here.
Key:
[1] = test system: RNA Polymerase II Serine 5 phosphorylation (Rpb1 CTD, downstream substrate of CDK7) in A549 cells; assay: Imaging-based cellular RNA PolII Ser5 phosphorylation assay in A549 cells; assay type: cell-based, human; conditions: for IC50: Homo sapiens
Procedure, shortened: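 A549 cells, seeded 1000/well in DMEM with 1% FBS and cultured 20 h, were treated with compound for 3 h at 37 °C. Ser5-phospho-Rpb1 CTD detected by immunofluorescence imaging after fixation and methanol permeabilization; IC50 from curve fit normalized to DMSO and 10 μM reference-compound controls.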

[2] = test system: RNA Polymerase II Serine 5 phosphorylation in A549 cells overexpressing CDK7-mutant (C312S); assay: Imaging-based cellular RNA PolII Ser5 phosphorylation assay in A549 cells overexpressing CDK7-mutant (C312S); assay type: cell-based, human; conditions: Homo sapiens
Procedure, shortened: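 A549 cells overexpressing CDK7 C312S (with endogenous wild-type CDK7) were treated with compound for 3 h at 37 °C in 1% FBS medium. Phospho-Rpb1 CTD Ser5 was immunostained after fixation and imaged. IC50 came from curve fit of % control, normalised to DMSO and 10 μM reference-compound controls.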

[3] = target: CDK7/cyclinH/MAT1 trimeric complex (Homo sapiens, UniProt P50613); assay: In vitro CDK7 assay, potency of irreversible covalent inhibitors (kinact/KI), coupled PK/LDH ADP readout at 340 nm
Sequence of CDK7/cyclinH/MAT1 trimeric complex (P50613 whole entry): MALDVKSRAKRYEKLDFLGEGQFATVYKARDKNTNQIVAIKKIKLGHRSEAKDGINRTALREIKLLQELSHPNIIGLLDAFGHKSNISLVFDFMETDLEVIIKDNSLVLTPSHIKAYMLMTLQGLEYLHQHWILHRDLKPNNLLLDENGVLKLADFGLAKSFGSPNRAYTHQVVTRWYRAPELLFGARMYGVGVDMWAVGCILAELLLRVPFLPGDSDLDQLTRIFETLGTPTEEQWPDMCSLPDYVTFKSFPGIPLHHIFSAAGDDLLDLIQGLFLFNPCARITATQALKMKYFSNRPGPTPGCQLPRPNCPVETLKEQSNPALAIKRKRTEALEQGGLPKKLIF
Sequence of CDK7/cyclinH/MAT1 trimeric complex (P51946 whole entry partner): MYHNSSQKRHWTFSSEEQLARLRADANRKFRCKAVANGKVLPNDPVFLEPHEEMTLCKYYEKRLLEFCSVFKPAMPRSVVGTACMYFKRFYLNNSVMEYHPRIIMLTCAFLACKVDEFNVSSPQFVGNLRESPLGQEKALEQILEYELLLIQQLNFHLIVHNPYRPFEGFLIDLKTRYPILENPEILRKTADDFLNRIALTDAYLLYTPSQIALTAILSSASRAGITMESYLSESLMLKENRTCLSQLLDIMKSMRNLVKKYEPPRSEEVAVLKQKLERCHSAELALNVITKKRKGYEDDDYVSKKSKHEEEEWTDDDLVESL
Sequence of CDK7/cyclinH/MAT1 trimeric complex (P51948 whole entry partner): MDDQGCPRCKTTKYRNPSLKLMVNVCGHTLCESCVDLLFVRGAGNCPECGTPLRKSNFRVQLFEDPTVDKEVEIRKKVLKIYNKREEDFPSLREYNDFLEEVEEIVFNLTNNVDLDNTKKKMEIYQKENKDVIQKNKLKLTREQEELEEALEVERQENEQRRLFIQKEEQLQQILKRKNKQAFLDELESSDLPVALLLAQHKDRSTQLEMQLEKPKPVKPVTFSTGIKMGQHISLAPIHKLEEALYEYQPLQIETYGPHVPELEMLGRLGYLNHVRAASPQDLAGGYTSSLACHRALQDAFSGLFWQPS

[4] = A549, A549 cells, wild-type CDK7, RNA PolII Ser5 phosphorylation, averaged over all measurements, read-out: CDK7_A549 Wild-type CDK7 (pIC50) (converted)
[5] = A549, A549 cells overexpressing CDK7-mutant (C312S), RNA PolII Ser5 phosphorylation, averaged over all measurements, read-out: CDK7_A549 mutant hCDK7(pIC50) (converted)
[6] = read-out: CDK7 (20 nM enz.) (kobs/[I], M^−1*s^−1), 20 nM enzyme
[7] = CDK7 (20 nM enz.) (KI, μM), 20 nM enzyme
[8] = read-out: CDK7 (20 nM enz.) (kinact, s^−1), 20 nM enzyme
[9] = read-out: CDK7 (20 nM enz.) (kinact/KI, M^−1*s^−1), 20 nM enzyme

C=CC(=O)N1CC[C@H](N2CC(c3cc(C)c4c(c3)Nc3nccc(N5CCOCC5)c3[C@@H](C)O4)C2)C1 (single isomer, unassigned) [Compound 239]
IC50 [1, 4]: 43.7 nM
IC50 [2, 5]: 7.08 µM
kinact/KI [3, 6]: 1040 M⁻¹ s⁻¹

C=CC(=O)N1CC(N2[C@@H]3CC[C@H]2C[C@H](c2ccc4c(c2)Nc2nccc(N5CCOCC5)c2CO4)C3)C1 [Compound 54]
IC50 [1, 4]: 145 nM
IC50 [2, 5]: 8.13 µM
Ki ([3]; CDK7 (KI(μM)), […], 1 mM ATP, room temperature, averaged values over all measurements): 0.1 µM
kinact ([3]; read-out: CDK7 (kinact, s^−1), kinact = maximal rate of inactivation, 1 mM ATP, room temperature, averaged values over all measurements): 0.0001 s⁻¹
kinact/KI ([3]; read-out: CDK7 (kinact/KI, M^−1*s^−1), potency of irreversible covalent inhibitors, 1 mM ATP, room temperature, averaged values over all measurements): 997 M⁻¹ s⁻¹

C=CC(=O)N1CC(N2CC(c3cc4c(c(C5CC5)n3)OCc3c(N5CCOCC5)ccnc3N4)C2)C1 [Compound 317]
IC50 [1, 4]: 60.3 nM
IC50 [2, 5]: > 10 µM
kinact/KI [3, 6]: 1060 M⁻¹ s⁻¹

C=CC(=O)N1CCC(N2CC(c3cc4c(c(C#N)n3)OCc3c(N5CCOCC5)ccnc3N4)C2)CC1 [Compound 384]
IC50 [1, 4]: 355 nM
IC50 [2, 5]: 5.13 µM
Ki [3, 7]: 0.03 µM
kinact [3, 8]: 7.49e-06 s⁻¹
kinact/KI [3, 9]: 249 M⁻¹ s⁻¹

C=CC(=O)N1CCC(N2CCC(c3ccc4c(c3)Nc3nccc(N5CCS(=N)(=O)CC5)c3CO4)CC2)CC1 [Compound 113]
IC50 [1, 4]: 380 nM
IC50 [2, 5]: > 10 µM
Ki [3, 7]: 0.39 µM
kinact [3, 8]: 6.16e-05 s⁻¹
kinact/KI [3, 9]: 158 M⁻¹ s⁻¹

C=CC(=O)N1CCC(N2CC(c3cc4c(c(-c5ncc[nH]5)n3)OCc3c(N5CCOCC5)ccnc3N4)C2)CC1 [Compound 366]
IC50 [1, 4]: 209 nM
IC50 [2, 5]: 10.7 µM
kinact/KI [3, 6]: 339 M⁻¹ s⁻¹

C=CC(=O)N1CC(N2CC(c3cc(C)c4c(c3)Nc3nccc(N5CCOCC5)c3CO4)C2)C1 [Compound 215]
IC50 [1, 4]: 64.6 nM
IC50 [2, 5]: > 10 µM
kinact/KI [3, 6]: 753 M⁻¹ s⁻¹

C=C(C(=O)N1CC[C@@H](N2CCC(c3cc4c(c(C)n3)OCc3c(-c5cnn(C)c5)ccnc3N4)CC2)C1)n1cccn1 (single isomer, unassigned) [Compound 365]
IC50 [1, 4]: 43.7 nM
IC50 [2, 5]: > 10 µM
Ki [3, 7]: 0.046 µM
kinact [3, 8]: 4.07e-05 s⁻¹
kinact/KI [3, 9]: 885 M⁻¹ s⁻¹

C=CC(=O)N1CC(N2CC(c3cc4c(c(C)n3)O[C@H](C)c3c(C5CCOCC5)ccnc3N4)C2)C1 (single isomer, unassigned) [Compound 477]
IC50 [1, 4]: 166 nM
IC50 [2, 5]: > 10 µM
kinact/KI [3, 9]: 342 M⁻¹ s⁻¹

C=CC(=O)N1CC(N2CCC(c3cc4c(c(C)n3)O[C@@H](C)c3c(C5CCOCC5)ccnc3N4)CC2)C1 (single isomer, unassigned) [Compound 415]
IC50 [1, 4]: 1820 nM
IC50 [2, 5]: > 10 µM
Ki [3, 7]: 2.22 µM
kinact [3, 8]: 7.43e-05 s⁻¹
kinact/KI [3, 9]: 33.5 M⁻¹ s⁻¹

C=CC(=C)N1CC(N2CCC(c3cc4c(cc3C)OCc3c(N5CCOCC5)ccnc3N4)CC2)C1 [Compound 19]
IC50 ([1]; A549, read-out: CDK7_A549 Wild-type CDK7 (pIC50) (converted)): 166 nM
IC50 ([2]; A549, read-out: CDK7_A549 mutant hCDK7(pIC50) (converted)): > 10 µM
kinact/KI ([3]; read-out: CDK7 (kinact/KI, M^−1*s^−1)): 304 M⁻¹ s⁻¹

C=CC(=O)N1CC(N2CCC(c3ccc4c(c3)Nc3nccc(C5CCOCC5)c3CO4)CC2)C1 [Compound 3]
CDK7_A549 Wild-type CDK7 (pIC50) ([1]; A549 cells, wild-type CDK7, RNA PolII Ser5 phosphorylation, averaged over all measurements): 6.89
IC50 [2, 5]: > 10 µM
CDK7 (kinact/KI, M^−1*s^−1) ([3]; potency of irreversible covalent inhibitors, 1 mM ATP, room temperature, averaged values over all measurements): 2787.5 M⁻¹ s⁻¹

C=CC(=O)N1CC[C@@H](N2CC(c3cc(C)c4c(c3)Nc3nccc(N5CCOCC5)c3CO4)C2)C1 (single isomer, unassigned) [Compound 327]
IC50 [1, 4]: 79.4 nM
IC50 [2, 5]: ~10 µM
Ki [3, 7]: 0.0302 µM
kinact [3, 8]: 4.16e-05 s⁻¹
kinact/KI [3, 9]: 1380 M⁻¹ s⁻¹

C=CC(=O)N1CC[C@H](N2CC(c3cc(C#N)c4c(c3)Nc3nccc(N5CCOCC5)c3[C@@H](C)O4)C2)C1 (single isomer, unassigned) [Compound 459]
IC50 [1, 4]: 72.4 nM
IC50 [2, 5]: 4.37 µM
kinact/KI [3, 6]: 734 M⁻¹ s⁻¹

C=CC(=O)N1CC[C@@H](N2CC(c3cc4c(c(C#N)n3)O[C@@H](C)c3c(N5CCOCC5)ccnc3N4)C2)C1 (single isomer, unassigned) [Compound 509]
IC50 [1, 4]: 2400 nM
IC50 [2, 5]: > 10 µM
Ki [3, 7]: 1.28 µM
kinact [3, 8]: 1.85e-05 s⁻¹
kinact/KI [3, 9]: 14.5 M⁻¹ s⁻¹

C#Cc1cc(C2CCN(C3CN(C(=O)C=C)C3)CC2)cc2c1O[C@@H](C)c1c(N3CCOCC3)ccnc1N2 (single isomer, unassigned) [Compound 258]
IC50 [1, 4]: 21.4 nM
IC50 [2, 5]: 6.46 µM
kinact/KI [3, 6]: 619 M⁻¹ s⁻¹

— patent US20240254138A1, “TRICYCLIC PYRIMIDINES AS CYCLIN-DEPENDENT KINASE 7 (CDK7) INHIBITORS” (JANSSEN PHARMACEUTICA NV, priority 2021, published 2024)
